Data from ChEMBL document CHEMBL1201862, “PubChem BioAssay data set” (2004).
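1) Cells in 96-well plates. 2) Compound, 48 h, 5 concentrations. 3) Linear interpolation between surrounding doses. 4) Unreached endpoint = highest concentration. At the GI50, growth is halved.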 The source made the active and inactive calls. Cut-off read from the data, not from the text of the source: active = GI50 up to about 1.1 µM and inactive = higher. Where a SMILES comes first, the peptide text is derived from it. [ ]: non-standard residue; d: D form. The star is where a group is joined. ξ: configuration not given here. ξF = NC(Cc1ccccc1)C(=O)O; Cbz = O=C(OCc1ccccc1)*; Aib = CC(C)(N)C(=O)O

Experiments:
Assay in all cases: NCI-60 cell line screen, 48 h
HL-60 = system: HL-60
HT-29 = system: HT-29
SF-539 = system: SF-539
NCI-H226 = system: NCI-H226
786-0 = system: 786-0
UO-31 = system: UO-31
OVCAR-3 = system: OVCAR-3
HCT-116 = system: HCT-116
HOP-62 = system: HOP-62
CAKI-1 = system: CAKI-1
SK-OV-3 = system: SK-OV-3
NCI-H460 = system: NCI-H460
U-251 = system: U-251
SN12C = system: SN12C
K562 = system: K562
MOLT-4 = system: MOLT-4
SNB-19 = system: SNB-19
KM12 = system: KM12
NCI-H522 = system: NCI-H522

Row | Structure (SMILES) | GI50 (HL-60) | GI50 (HT-29) | GI50 (SF-539) | GI50 (NCI-H226) | GI50 (786-0) | GI50 (UO-31) | GI50 (OVCAR-3) | GI50 (HCT-116) | GI50 (HOP-62) | GI50 (CAKI-1) | GI50 (SK-OV-3) | GI50 (NCI-H460) | GI50 (U-251) | GI50 (SN12C) | GI50 (K562) | GI50 (MOLT-4) | GI50 (SNB-19) | GI50 (KM12) | GI50 (NCI-H522)
1 | O=c1cccc2n1C[C@H]1CNC[C@H]2C1 | > 100 µM (inactive) | > 100 µM (inactive) | > 100 µM (inactive) | > 100 µM (inactive) | > 100 µM (inactive) | > 100 µM (inactive) | > 100 µM (inactive) | > 100 µM (inactive) | > 100 µM (inactive) | > 100 µM (inactive) | > 100 µM (inactive) | > 100 µM (inactive) | > 100 µM (inactive) | > 100 µM (inactive) | > 100 µM (inactive) | > 100 µM (inactive) | > 100 µM (inactive) | > 100 µM (inactive) | 
2 | COC(=O)C(C)(C)NC(=O)C(Cc1ccccc1)NC(=O)C(C)(C)NC(=O)OCc1ccccc1 (stereo unspecified) (Cbz-[Aib]-[ξF]-[Aib]-OMe) | > 100 µM (inactive) | > 100 µM (inactive) |  |  |  | > 100 µM (inactive) | > 100 µM (inactive) | > 100 µM (inactive) | > 100 µM (inactive) | > 100 µM (inactive) | > 100 µM (inactive) | > 100 µM (inactive) | > 100 µM (inactive) |  | > 100 µM (inactive) | > 100 µM (inactive) | > 100 µM (inactive) |  | > 100 µM (inactive)
3 | O=NN(CCF)C(=O)NC1CCSCC1 | > 100 µM (inactive) | > 100 µM (inactive) | > 100 µM (inactive) |  |  | > 100 µM (inactive) | > 100 µM (inactive) | > 100 µM (inactive) | 1 µM (active) | > 100 µM (inactive) | > 100 µM (inactive) | > 100 µM (inactive) | > 100 µM (inactive) | > 100 µM (inactive) | > 31.6 µM (inactive) | > 100 µM (inactive) | > 100 µM (inactive) | > 100 µM (inactive) | > 100 µM (inactive)
4 | CC1C=CC(=O)C(n2cc(F)c(=O)[nH]c2=O)O1 (stereo unspecified) | 20.1 µM (inactive) | 18.2 µM (inactive) | 17.2 µM (inactive) |  | 16 µM (inactive) | 16.4 µM (inactive) | 17.3 µM (inactive) | 15.7 µM (inactive) | 20.8 µM (inactive) | 11.6 µM (inactive) | 27.7 µM (inactive) | 23.3 µM (inactive) | 15.7 µM (inactive) | 18.4 µM (inactive) | 17.7 µM (inactive) | 16.5 µM (inactive) | 22.2 µM (inactive) |  | 
5 | O=C1NC(=O)/C(=C/c2ccc(S(=O)(=O)N/N=C/c3ccccc3)cc2)N1 | > 100 µM (inactive) | > 100 µM (inactive) |  | > 100 µM (inactive) | > 100 µM (inactive) | > 100 µM (inactive) | > 100 µM (inactive) | > 100 µM (inactive) | > 100 µM (inactive) | > 100 µM (inactive) | > 100 µM (inactive) |  | > 100 µM (inactive) | > 100 µM (inactive) | > 100 µM (inactive) | > 100 µM (inactive) | > 100 µM (inactive) | > 100 µM (inactive) | 
6 | O=C(O)C1Cc2c([nH]c3ccccc23)C=N1 (stereo unspecified) | > 100 µM (inactive) | > 100 µM (inactive) | > 100 µM (inactive) |  |  | > 100 µM (inactive) | > 100 µM (inactive) | > 100 µM (inactive) | > 100 µM (inactive) | > 100 µM (inactive) | > 100 µM (inactive) | > 100 µM (inactive) | > 100 µM (inactive) | > 100 µM (inactive) | > 100 µM (inactive) | > 100 µM (inactive) | > 100 µM (inactive) |  | > 100 µM (inactive)
7 | Cc1ccc(C2=C(c3ccccc3)C(Br)(c3ccc(C)cc3)C(c3ccccc3)=C2c2ccc(C)cc2)cc1 | > 100 µM (inactive) |  | > 100 µM (inactive) |  | > 100 µM (inactive) |  | > 100 µM (inactive) | > 100 µM (inactive) | > 100 µM (inactive) | > 100 µM (inactive) | > 100 µM (inactive) | > 100 µM (inactive) | > 100 µM (inactive) | > 100 µM (inactive) | > 100 µM (inactive) | > 100 µM (inactive) | > 100 µM (inactive) | > 100 µM (inactive) | 
8 | CC1CN=C(N(C(=O)Nc2ccc(Cl)c(Cl)c2)c2ccccc2)S1 (stereo unspecified) | > 10 µM (inactive) | 34.8 µM (inactive) | 39.4 µM (inactive) |  | 43.4 µM (inactive) | > 100 µM (inactive) | 68.1 µM (inactive) | 42.6 µM (inactive) | > 100 µM (inactive) | 77.6 µM (inactive) |  | 43.4 µM (inactive) | 53.5 µM (inactive) | 33.6 µM (inactive) | > 10 µM (inactive) | > 100 µM (inactive) | > 100 µM (inactive) | 32.1 µM (inactive) | 
9 | COC(=O)C1=C2CCC(=O)[C@@]2(C)C(OC(C)=O)C=CC1 (stereo partly specified) | 29.5 µM (inactive) | > 100 µM (inactive) | 49.3 µM (inactive) | > 100 µM (inactive) | > 100 µM (inactive) | > 100 µM (inactive) | 53.6 µM (inactive) | 24.5 µM (inactive) | > 100 µM (inactive) | > 100 µM (inactive) | > 100 µM (inactive) | > 100 µM (inactive) | 59.6 µM (inactive) | > 100 µM (inactive) | 30.8 µM (inactive) | 35.9 µM (inactive) |  | > 100 µM (inactive) | 
10 | CC(C(=O)C(C)O[Si](c1ccccc1)(c1ccccc1)C(C)(C)C)=P(c1ccccc1)(c1ccccc1)c1ccccc1 (stereo unspecified) | 1.91 µM (inactive) | 3.08 µM (inactive) | 3.89 µM (inactive) | 3.3 µM (inactive) | 4.06 µM (inactive) | 5.28 µM (inactive) | 2.9 µM (inactive) | 2.98 µM (inactive) | 3.09 µM (inactive) | 3.21 µM (inactive) | 2.42 µM (inactive) | 3.69 µM (inactive) | 4.01 µM (inactive) | 3.77 µM (inactive) | 2.95 µM (inactive) | 2.95 µM (inactive) | 3.96 µM (inactive) | 3.61 µM (inactive) | 
11 | COc1ccccc1-c1cc(O)c2c(C)cc(C)nc2n1 |  | 56.8 µM (inactive) | > 100 µM (inactive) | > 100 µM (inactive) |  | 47.1 µM (inactive) |  |  | > 100 µM (inactive) | 40.3 µM (inactive) | > 100 µM (inactive) |  |  | 70.1 µM (inactive) | 67.9 µM (inactive) | 30 µM (inactive) | 73.3 µM (inactive) | 29.1 µM (inactive) | 43.7 µM (inactive)
12 | CCCCC1=CSC(c2ccccc2)=C(c2ccccc2)S1 |  | 33.6 µM (inactive) | > 100 µM (inactive) | > 100 µM (inactive) | 87.5 µM (inactive) | > 100 µM (inactive) | 60.4 µM (inactive) | 6.46 µM (inactive) |  |  | > 100 µM (inactive) | 53.1 µM (inactive) | 30.9 µM (inactive) | 97.5 µM (inactive) | 8.83 µM (inactive) | 8.97 µM (inactive) | 43.3 µM (inactive) | 42.3 µM (inactive) | 
